The values below are quoted from earlier work in patent publication US20230233634A1, “PROCYANIDINS FOR THE TREATMENT OF ENDOTHELIAL DYSFUNCTION TRIGGERED BY COVID-19” (priority 2020, published 2023).

The subject of the series is iNOS (inducible nitric oxide synthase). To be noted: direct anti-inflammatory activity.

As to `O=C1CCC(Cc2ccc(O)c(O)c2)O1` (stereo not shown) [M1, δ-(3,4-dihydroxy-phenyl)-γ-valerolactone], the “iNOS expression and nitrite production” value is “reducing iNOS (inducible nitric oxide synthase) expression and excessive nitrite production”.
